Experimental data reported in publication PMC11117716 (Biomolecules, 2024).

Experiments:
[1] = Plasma pharmacokinetics after oral Posiphen in Beagle dogs (LC-MS/MS); set-up: species or system dog; conditions: for Mean plasma concentration: Beagle dogs, Posiphen 20 mg/kg; for Tmax: dog plasma, Posiphen PO 20 mg/kg, n = 12
Procedure: In rats and dogs, blood samples were centrifuged, and the resultant plasma was separated, and 200 µL (rat) or 400 µL (dog) of plasma was transferred to uniquely labeled pre-chilled polypropylene tubes containing 5 µL (rat) or 10 µL (dog) Dichlorvos spiking solution (nominal concentration of 0.82 mg/mL in MeOH/Water, 20/80, v/v).
(§1) The detection limit was 0.025 ng/mL.

[2] = Plasma pharmacokinetics after oral Posiphen in humans (LC-MS/MS); assay type: in vivo, human; conditions: for Tmax: Posiphen PO 80 mg/day (1.1 mg/kg), n = 4
Procedure: (§2) This paper describes data from multiple studies.
Samples were frozen and then stored at −80 °C.
as §1

[3] = LogD; assay type: physicochemical
[4] = Population pharmacokinetic analysis (Nonmem) in healthy volunteers and Alzheimer's and Parkinson's patients; assay type: in vivo, human; conditions: popPK
Procedure: Population pharmacokinetic analysis was conducted using data from healthy volunteers from Study 101 (single ascending dose study with 72 subjects) and Study 102 (multiple dose study with 48 volunteers) and in patients (multiple dose study in 68 patients with early Alzheimer’s or early Parkinson’s disease). Data were fit using a Bayesian approach as implemented in the software package Nonmem® (version 7.5.1, Icon Development Solutions, Dublin, Ireland). Standard model building approaches were used. After a base model was established, covariates were evaluated singly and assessed graphically using eta plots—The full model consisted of all statistically significant covariates identified during the single covariate evaluation phase, and back elimination was conducted. Each covariate was removed from the full model, and the impact of that removal was assessed based on model output. The final model performance was assessed graphically and using simulation with a visual predictive check (VPC). […]
The asymptotic standard errors (SEs) and nonparamet ric bootstrapped confidence intervals (CIs) estimated the parameter precision. Other model statistics were evaluated, such as etabar and associated p values. […]
substantial skewness or kurtosis; therefore, transforms were not evaluated. […]
Plasma concentration data were evaluated using an LTBS approach. […]

[5] = Posiphen pharmacokinetics compared across species (mouse, rat, dog, human); assay type: in vivo
Procedure: as §2, §1

[6] = tested on: acetylcholinesterase; conditions: cited from earlier work
[7] = tested on: neurotoxic aggregating proteins; conditions: cited from earlier work
[8] = both sexes, Beagle, dog, in vivo, po, 20 mg/kg

For CN1CC[C@]2(C)c3cc(OC(=O)Nc4ccccc4)ccc3N(C)C12.O=C(O)C(O)C(O)C(=O)O (stereo partly drawn) [Posiphen, (3aR)-1,3a, 8-trimethyl-1,2,3,3a, 8,8a-hexahydropyrrolo (2,3-b) indol-5-yl phenylcarbamate tartrate], the Mean plasma concentration ([1]; 0.25 h) was 2.34 ng/mL, the Mean plasma concentration ([1]; 0.5 h) was 241 ng/mL and the Mean plasma concentration ([1]; 1 h) was 326 ng/mL. It also gave a Mean plasma concentration ([1]; 2 h) of 203 ng/mL, a Mean plasma concentration ([1]; 4 h) of 32.3 ng/mL and a Mean plasma concentration ([1]; 8 h) of 4.4 ng/mL. It also gave a Mean plasma concentration ([1]; 12 h) of 1.27 ng/mL, a Cmax [1, 8] of 402 ng/mL and a half-life [1, 8] of 1.96 h. The Tmax ([1]; both sexes, Beagle, dog, in vivo, po, 20 mg/kg, read-out: Tmax) was 1 to 2 h, the AUC(0-t) ([1]; both sexes, Beagle, dog, in vivo, po, 20 mg/kg, read-out: AUC (0–8 h)) was 756 ng·h/mL and the Tmax ([1]; 20 mg/kg) was 1.18 h. The “Primary compound in plasma” value ([2]; human plasma) was “primary compound”, the Tmax ([2]; human plasma) was 1.45 h and the Cmax ([2]; human, in vivo, po) was 117 ng/mL. It also gave a Cmax ([2]; human, in vivo, po, 1.1 mg/kg) of 120 ng/mL, a Tmax ([2]; human, in vivo, po, 1.1 mg/kg, human plasma, read-out: Tmax) of 1 to 2 h and an AUC(0-t) ([2]; human, in vivo, po, 1.1 mg/kg, read-out: AUC (0–8 h)) of 310 ng·h/mL. The AUC(0-t) ([2]; human, in vivo, po, read-out: AUC (0-t)) was 565 ng·h/mL, the logD [3] was 2.2 and the Km ([4]; human, plasma, oral, as dose increased from 0.04 to 2.4 mg/kg, read-out: Michaelis constant (km)) was 0.01 to 0.015 µg/mL. For the same compound, the “Variability in absorption, metabolism and clearance between healthy subjects and Alzheimer's or Parkinson's patients” value [4] was “no variability”, the half-life ([5]; CSF or brain, oral) was > 12 h and the Time to peak ([5]; all analyzed species: mouse, rat, dog, human) was ≤ 2 h. The “Acetylcholinesterase inhibitory (AChEI) activity” value [6] was “no acetylcholinesterase inhibitory (AChEI) activity” and the TINAP activity [7] was “have TINAP”.
